Measured values as given in paper PMC5684143, “New melanocortin-like peptide of E. coli can suppress inflammation via the mammalian melanocortin-1 receptor (MC1R): possible endocrine-like function for microbes of the gut” (NPJ Biofilms and Microbiomes, 2017).

How the values were obtained:
RAW 264.7 cells [1] = assay: HMGB1-induced TNF release by RAW 264.7 macrophage-like cells; type: cell-based, murine
Method: Fig. 1 MECO-1 attenuates HMGB1-induced TNF release by macrophages in culture. Murine macrophage-like RAW 264.7 cells were incubated for up to 24 h with purified recombinant HMGB1 (0.1 mg/ml) in the absence or presence of MECO-1 (Panel a), or alpha-MSH (Panel b), at 10^−10 and 10^−12 M. The levels of TNF in the culture medium were determined by ELISA and expressed as mean ± SEM of two independent experiments (in duplicate). *p < 0.05, **p < 0.01 vs. control (“HMGB1 alone”). […] In panels c and d, cells were incubated with HMGB1 for 6 h with or without MECO-1 or alpha-MSH (10^−16–10^−6 M). Data represent mean ± SEM of three independent experiments performed in duplicate. With 10^−14 M peptide, results were significant at *p < 0.05, and at 10^−12 M or more were typically **p < 0.01. In our experiments, at concentrations of MECO-1, alpha-MSH, and ACTH of around 1 nM and higher, dose response curves often reverse direction, i.e., turn upward. The reversal is more clearly seen in Fig. 2. The mechanism of the reversal is not known. (Desensitization, receptor inactivation, receptor internalization, and dissociation of dimeric receptors are all plausible candidates.) As a result, the shape of the lower part of the curve and the actual inflection point may vary from experiment to experiment. This feature may be missed when results of several experiments are combined
(§1) Murine macrophage-like RAW 264.7 cells were obtained from American Type Culture Collection, and were grown in Dulbecco’s Modified Eagle’s Medium (DMEM, Life Technologies) containing 10% (vol/vol) heat-inactivated fetal bovine serum (FBS, Hyclone Lab. Inc.), penicillin 100 U/ml, and streptomycin 100 μg/ml (BioWhittaker Inc.). Cells were suspended in medium and incubated in 24-well or 48-well tissue-culture plates overnight in a humidified incubator (37 °C, 5% CO2). Growth medium was removed and replaced by Opti-MEM I serum-free medium (Life Technologies) overnight. In the experiments, cell monolayers were stimulated with HMGB1 or LPS, in the absence or presence of MECO-1 or alpha-MSH; cell-free supernatants were assayed for TNF by ELISA or HMGB1 by western blotting.
(§2) Concentrations of TNF and IL-6 were each determined using a commercially available enzyme-linked immunosorbent assay (ELISA) kit (R&D System Inc.) as previously described.[34] The levels of TNF or IL-6 were calculated with reference to standard curves.
Fig. 3 Antibody to MC1R blocks suppressant effect of MECO-1 and alpha-MSH. Murine macrophage-like RAW 264.7 cells were pretreated with specific antibodies (“anti-MC1R Ab”) against melanocortin-1 receptor (MC1R) for 10 min prior to addition of HMGB1 in the absence or presence of MECO-1 or alpha-MSH at 10^−12 M. At 6 h, the TNF content of the cell-free medium was determined by ELISA, and expressed as mean ± SEM of two independent experiments performed in duplicate. ACTH at the same concentration gave results that were indistinguishable from those of alpha-MSH and MECO-1 (data not shown)

RAW 264.7 cells [2] = assay: LPS-induced TNF release by RAW 264.7 cells; type: cell-based, murine; details: LPS 10 ng/ml; peptides 10^-12 M; agouti 10-10^5 pM
Method: as §1, §2
Fig. 2 Cytokine-induced TNF release inhibited by MECO-1. a Lipopolysaccharide (LPS), derived from the cell wall of Gram-negative bacteria, is a TLR4 and TLR2 agonist. RAW 264.7 cells were treated with MECO-1 and LPS simultaneously and incubated overnight. Supernatants were tested for TNF with ELISA. b Poly I:C, synthetic double stranded RNA, is recognized by TLR3. RAW 264.7 cells were pre-treated with MECO-1 and then stimulated with Poly I:C. Supernatants were tested in ELISA by TNF. c Peptidoglycan (PGN), another TLR2 agonist, is ubiquitous in the cell wall of bacteria. RAW 264.7 cells were pre-treated with MECO-1 and then stimulated with PGN; after overnight stimulation, supernatants were harvested and tested for TNF ELISA. d HMGB-1. Each vertical bar is the mean of three experimental points, using HMGB-1 to induce TNF release. Three sets of three experiments were used for the measurement of inhibition
Fig. 5 a Bioactive analogues of MECO-1. Murine macrophage-like RAW 264.7 cells were incubated with lipopolysaccharide (LPS, 4 ng/ml) in the absence or presence of MECO-1 or BACTN or BACFR, synthetic peptides based on the C-termini of EF-G of Bacteroides thetaiotamicron and Bacteroides fragilis. EFG-2 refers to human mitochondrial EFG-2 (mtEFG2). For Bacteroides thetaiotamicron, we used a 38-mer consisting of residues 681–703 shown in Fig. 4c followed by 704–718 QDKLIKDFEAKQTEE. For Bacteroides fragilis, we used a 33-mer consisting of residues, 681–703 shown in Fig. 4c followed by 704–713 = QDKLIKDFES. At 6 h after stimulation, aliquots of cell-free medium were examined. In other experiments, the synthetic peptide based on human mitochondrial EF-G1 (mtEFG1) gave results indistinguishable from EF-G2 (data not shown). The precise structure of the synthetic peptides is indicated in the text (see section “Results” and Table 1). Shown is a representative experiment.

[3] = test system: human peripheral blood mononuclear cells (PBMC); assay: HMGB1-induced TNF release by human PBMC-derived macrophages; type: cell-based; details: differentiated human macrophages; HMGB1 6 hours; ELISA; three independent experiments in duplicate
Method: Human PBMC were isolated by density gradient through Ficoll-Paque^TM PLUS centrifugation (Amersham Pharmacia Biotech), and suspended in RPMI 1640 containing 10% (vol/vol) heat-inactivated human serum (BioWhittaker Inc.), penicillin 100 U/ml, and streptomycin 100 μg/ml, and incubated at 37 °C in a humidified incubator with 5% CO2 atmosphere overnight. Non-adherent cells were discarded. Adherent monocytes were washed twice with PBS and were then suspended in 12-well and 24-well tissue culture plates and incubated in the same medium but now enriched with 2.5 ng/ml macrophage colony-stimulating factor for 5–7 days.[33] […]
as §2
Human peripheral blood mononuclear cells (PBMC) were isolated by density gradient centrifugation through Ficoll-PaqueTM PLUS, and cultured for 5-7 days in medium containing macrophage colony-stimulating factor (2.5 ng/ml). […] The content of TNF in the cell-free medium was determined by ELISA and expressed as mean ± SEM of three independent experiments performed in duplicate. *p< 0.05, **p< 0.01 vs. control (=HMGB1 alone without added melanocortin peptide).

RAW 264.7 cells [4] = assay: LPS-induced HMGB1 release by RAW 264.7 cells (western blot); type: cell-based, murine; details: LPS 100 ng/ml, peptide 10^-10 M, 16-20 hrs, four independent experiments, P < 0.01
Method: as §1, with “In the experiments, cell monolayers were stimulated with HMGB1 or LPS, in the absence or presence of MECO-1 or alpha-MSH; cell-free supernatants were assayed for TNF by ELISA or HMGB1 by western blotting.” left out
The levels of HMGB1 in the culture medium or murine serum were measured by western immunoblotting as previously described.[30] […] The relative band intensity was quantified by using the NIH image 1.59 software. The levels of HMGB1 (expressed as % maximum effect) were calculated with reference to standard curves generated with purified rHMGB1 and expressed as mean ± SEM of four experiments.
Murine macrophage-like RAW 264.7 cells were incubated with LPS (100 ng/ml) in the absence or presence of MECO-1 or alpha-MSH at 10^-10 M. At 16-20 hrs after stimulation, aliquots of cell-free medium were examined. HMGB1 levels in the (conditioned) culture medium were expressed as mean ± SEM of four independent experiments with the peak level (obtained with LPS) set at 100%. […]

Compound: O=S(=O)(NCCNC/C=C/c1ccc(Br)cc1)c1cccc2cnccc12 [H89]
- effect of H89 on peptide-mediated reduction of HMGB1-induced TNF accumulation (RAW 264.7 cells [1]; H89 1mM added 10 minute before, peptides 10^-10 M, 6h, two independent experiments in duplicate): abrogated the effects of the three peptides

Compound: Mouse agouti (93-132)-NH2
- effect of agouti on attenuation by MECO-1 and alpha-MSH of LPS-induced TNF release (RAW 264.7 cells [2]): reversed the attenuation

Compound: adrenocorticotropin (SYSMEHFRWGKPVGKKRRPVKVYPNGAEDESAEAFPLEF; Corticotropin; UniProt P01189 138-176, looked up) [ACTH, mammalian melanocortin hormone ACTH (1-39), purchased from Bachem]
- attenuation of HMGB-1-induced TNF release [3]: very similar results
- suppression of HMGB-1-induced TNF release (RAW 264.7 cells [1]; RAW 264.7 cells, data not shown): highly significant suppression, typically in the subpicomolar range
- TNF accumulation with HMGB1 on co-incubation with peptide (RAW 264.7 cells [1]; peptide 10^−12–10^−8 M): substantially reduced
- LPS-induced HMGB-1 secretion (RAW 264.7 cells [4]): indistinguishable from MECO-1 and alpha-MSH
